The values that follow come from patent publication US11840495B2, “Compositions and methods related to di-substituted bicyclo[2.2.1] heptanamine-containing compounds” (The Broad Institute, Inc., priority 2020, dated 2023).

Counter-ions that a name gives are not always drawn. Like-named read-outs stand apart in the source and are kept apart here.

The subject of one series is MUC1-fs. The series is described as follows: Immunofluorescence imaging of MUC1-fs in P cells (Example 2). Format: cell-based. The following applies: for EC50: 48 hr incubation, MUC1-fs; for ECMax (%) / Emax: 48 hr; for ECMax (%): DMSO = 0, JQ1 (250 nM) = −100% activity; for Emax: DMSO = 0, JQ1 = −100% activity, in %. The gist of the method: (§1)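 P cells were treated for 48 h with 5-dose (35–0.0035 μM) or 10-dose (16–0.0008 μM) series, in duplicate. Fixed cells were immunostained for MUC1-fs, MUC1-wt, GM130 and Hoechst nuclei. Per-cell cytoplasmic intensity was normalized with DMSO as 0% and JQ1 (250 nM) as −100%; cell number was normalized to DMSO.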

A further series has as its system P cells. As to the kind of experiment: in vitro cellular potency of TA compounds determined in P cells. Format: cell-based.
The subject of another series is MUC1-wt. As to the kind of experiment: Immunofluorescence imaging of MUC1-wt in P cells (Example 2). Format: cell-based. The following applies: for EC50: 48 hr incubation, MUC1-wt; for WT ECMax (%) / WT EMax: 48 hr; for WT ECMax (%): DMSO = 0, JQ1 (250 nM) = −100% activity; for WT EMax: DMSO = 0, JQ1 = −100% activity, in %. The gist of the method:
as §1

Series [1] is described as follows: Test agent stability on storage. Format: physicochemical. To be noted: storage 4° C.; refrigerated and room temperature.
The next series deals with FS MUC1. The series is described as follows: Automated fixation/staining imaging assay, FS MUC1 spot cytoplasm (Example 3). Format: cell-based. To be noted: 48 hour treatment time; for FS MUC1 Spot Cytoplasm Avg Emax: in % (unit assumed). The text has this: (§2) Prepared Renal Life Media by adding the supplements provided in the kit, substituting the FBS provided with Tet system approved FBS, and filtering the media (not including provided kit antibiotics). Thawed P6 vial(s) into T175 flasks 2 weeks prior to screening. Cells have to be passaged at least once after thaw before they can be used for screening. Hyperflasks can be used depending on the cell number needed. One confluent T175 flask should give at least 25 million cells. Cells should not be split beyond 1:2-1:4 and should only be trypsinized 1×/week. Cells must be spun down after each typsinization. Flasks must be confluent at time of plating. Flasks were incubated at 37° C., 5% CO2, 98% humidity. Cells can only be cultured for up to 10 passages before a new vial will need to be thawed.
(§3) • Day 1: Cells are plated. • Day 2: Compounds are transferred into assay plates with Echo (24 hours post-seeding) • Day 3: Begin preparing reagents for fixation and staining. • Day 4: Plates are fixed and stained (48 hour treatment time) on automated system and subsequently imaged on Opera Phenix. • Day 5: Data analysis and reporting is performed. Plate Preparation:
(§4) Calculated cell number needed and media volume needed for the run (MAX 20 plates/run). Cells were seeded into Synthemax-coated 384-well Cell Carrier plates at a density of 12,000 cells/well in 40 ul of Renal Life Media/well. Calculated for an extra 2-3 plate volumes to account for volume needed to fill the Combi cassette lines and left dead volume of cell suspension. (20 ul added with Combi after compound addition for total 60 ul assay volume, due to volume constraints of Echo transfer process). Trypsinized cells with 3 ml/T175 flask of TrypLE™ Express Enzyme 1X. Then spun down cells and resuspend in 10 ml media. Counted the cells using Nexcelom Cellometer K2. Prepared a mixture of 20 ul cell suspension/20 ul Cellometer AOPI Stain (#CS2-0106) and then add 20 ul of the 2 fold diluted mixture onto a Cellometer slide. Counted the cells by using the Dual Stain option and following the prompts. Recorded the live cell density, viability, and current passage number and date in notebook. Used the live cell density in calculating how to prepare the cell seeding suspension. Mixed the cell suspension thoroughly but gently. Once Combi cassette cleaned and cell suspension was made, dispensed 40 ul of cell suspension per well into the Synthemax-coated Cell Carrier assay plates. Immediately after seeding, stored the assay plates in the Liconic Incubator on the enclosed system in the 3100 automation lab, spaced plates out every other slot in stackers to maximize air flow.
(§5) Generated Arxspan Run ID to record compound transfer in CBIP. Spun down compound plates and assay plates 2000 RPM 10 sec. Load assay plates into Echo system incubator. Coordinated plate locations and record RUN ID with automation team member. Ran protocol for 100 nl transfer according to designated plate layout/template. When run was completed, added 20 ul of media/well for all assay plates with Combi in hood in Tissue culture room. Returned plates to the incubator in the enclosed system for 48 hour treatment time.
(§6) Heated up solution (100° C. on stir plate) and dissolved Roche Blocking reagent by stirring. The resulting solution was cloudy. Stored at 4° C. and used within one week or froze aliquots at −20° C. Combi 4: 1° Antibody Cocktail: Prepared the day of experiment. Swirled to mix. […] Prepared solution in Corning 250 ml conical flask and covered with tinfoil to protect from light.
(§7) Combi 5: 2° Antibody Cocktail: Prepared the day of experiment. Swirlrf to mix. […] Prepared solution in Corning 250 ml conical flask and covered with tinfoil to protect from light.
(§8) Removed media using BioTek plate washer. (PEKASP62) Moved plates to Combi. Combi 1. Dispensed 40 μl of 4% PFA (Combi on MEDIUM Speed). Incubated plates 20 minutes. Washed two times on BioTek plate washer. (PEK26X2)
(§9) Moved plates to Combi. Combi 2. […]

The test system of a further series is NUCB1. The series is described as follows: Automated fixation/staining imaging assay, NUCB1 intensity (Example 3). Format: cell-based. The following applies: 48 hour treatment time; for NUCB1 Intensity Avg Emax: in % (unit assumed).
Text: as §2, §3, §4, §5, §6, §7, §8, §9

As for `CC[C@@]1(C)[C@H]2CC[C@H](C2)[C@H]1N` (single isomer, unassigned) [Compound 203-P1], the half-maximal effective concentration (EC50) with MUC1-fs (read-out: EC50(Spot)) was determined as 0.05 µM; in the series on P cells, 0.04 µM; in the series on MUC1-wt (read-out: WT EC50 (Cytoplasm)), 2.7 µM. The “ECMax (%)” value with MUC1-fs is −76.02%. Further, the “WT ECMax (%)” value in the series with MUC1-wt came to 91.48%. Besides, the Stability/expiration date result in series [1] is “Stable when refrigerated and at room temperature for few hours”.

For `CC[C@]1(C)[C@@H]2CC[C@@H](C2)[C@@H]1N` (single isomer, unassigned) [Compound 203-P2], the EC50 in the series with MUC1-fs (read-out: EC50(Spot)) worked out at 0.04 µM; in the series on P cells, 0.046 µM; in the series on MUC1-wt (read-out: WT EC50 (Cytoplasm)), 2.6 µM. Further, in the series on MUC1-fs, the “ECMax (%)” value is −75%. In the series with MUC1-wt, the “WT ECMax (%)” value amounted to 95%. Besides, the Stability/expiration date entry in series [1] was “Stable when refrigerated and at room temperature for few hours”.

Regarding `N[C@]1(c2ccccc2)[C@@H]2CC[C@@H](C2)C12CCCC2` (racemic) [Compound 252], in the series with FS MUC1, the IC50 was 7.83 µM and the “FS MUC1 Spot Cytoplasm Avg Emax” value is listed as −86.32. For the same compound, in the series with NUCB1, the concentration for a half-maximal effect (EC50) was determined as 11.2 µM and the “NUCB1 Intensity Avg Emax” value was −72.37.

Take `CC(C)[C@H]1[C@@H]2CC[C@@H](C2)[C@]1(C)N` (single isomer, unassigned) [Compound 259]: in the series on FS MUC1, the IC50 amounted to 2.94 µM and the “FS MUC1 Spot Cytoplasm Avg Emax” value is −59.03. For the same compound, in the series on NUCB1, the half-maximal effective concentration (EC50) was found to be 14.6 µM and the “NUCB1 Intensity Avg Emax” value is −53.

Turning to `CC1(C)[C@H]2CC[C@H](C2)[C@@]1(C)N` (racemic) [Compound 242, rac-2,3,3-trimethylbicyclo[2.2.1]heptan-2-amine hydrochloride], the 50% effective concentration (EC50) was 2.43 µM in the series with MUC1-fs (read-out: EC50), > 16 µM in the series with MUC1-wt (read-out: WT EC50) and 4.93 µM with NUCB1. In addition, the Emax in the series on MUC1-fs is reported as −67.4. This compound had an IC50 in the series on FS MUC1 of 2.43 µM. Also, in the series on FS MUC1, the “FS MUC1 Spot Cytoplasm Avg Emax” value is on record as −67.4. In the series on MUC1-wt, the “WT EMax” value was determined as 27.7. The “NUCB1 Intensity Avg Emax” value with NUCB1 is listed as −85.46.

Turning to `CC(C)[C@@H]1[C@H]2CC[C@H](C2)[C@@]1(C)N` (single isomer, unassigned) [Compound 257], in the series with FS MUC1, the midpoint of inhibition, the IC50, lay at 0.0969 µM and the “FS MUC1 Spot Cytoplasm Avg Emax” value was −74.94.

Turning to `CC(C)[C@H]1[C@H]2CC[C@H](C2)[C@]1(C)N` (racemic) [Compound 255], in the series on FS MUC1, 8.25 µM corresponded to half-maximal inhibition (IC50) and the “FS MUC1 Spot Cytoplasm Avg Emax” value was −67.5.

Regarding `CC(C)[C@H]1[C@H]2CC[C@H](C2)[C@@]1(C)N` (racemic) [Compound 254], in the series on FS MUC1, half-maximal inhibition (IC50) was put at 8.52 µM and the “FS MUC1 Spot Cytoplasm Avg Emax” value is −69.07.

For `CC(C)[C@@H]1[C@H]2CC[C@H](C2)[C@@]1(C)N` (racemic) [Compound 256], in the series with FS MUC1, half-maximal inhibition (IC50) was put at 6.45 µM and the “FS MUC1 Spot Cytoplasm Avg Emax” value is −65.11.

For `C[C@]1(N)C[C@H]2CC[C@@H]1C2` (single isomer, unassigned) [Compound 253], in the series with FS MUC1, the 50% inhibitory concentration (IC50) was found to be 8.58 µM and the “FS MUC1 Spot Cytoplasm Avg Emax” value is on record as −52.28. In addition, in the series on NUCB1, the “NUCB1 Intensity Avg Emax” value is recorded as −21.51.

Take `CC(C)[C@H]1[C@H]2CC[C@H](C2)[C@]1(C)N` (single isomer, unassigned) [Compound 251]: in the series with FS MUC1, the half-maximal inhibitory concentration (IC50) is 0.24 µM and the “FS MUC1 Spot Cytoplasm Avg Emax” value is −72.07.

For the compound `NC1C2CCC(C2)C12CCCC2` (racemic) [Compound 232, rac-spiro[bicyclo[2.2.1]heptane-2,1′-cyclopentan]-3-amine], the values for the half-maximal effective concentration (EC50) in the series with MUC1-fs (read-out: EC50) and in the series on MUC1-wt (read-out: WT EC50) were 5.99 µM and > 16 µM, respectively. Moreover, in the series on MUC1-fs, the Emax is listed as −68.6. For the same compound, the “WT EMax” value with MUC1-wt is reported as 6.6.

Regarding `C[C@H]1CCC[C@@]2(C1)[C@@H]1CC[C@@H](C1)[C@@H]2N.Cl` [Compound 214-P2-A], the concentration for a half-maximal effect (EC50) in the series with MUC1-fs (read-out: EC50(Spot)) was 24 µM; with MUC1-wt (read-out: WT EC50 (Cytoplasm)), > 32 µM. In the series with MUC1-fs, the “ECMax (%)” value is given as −24.69%. Also, the “WT ECMax (%)” value in the series with MUC1-wt is listed as −7.57%.

Turning to `C[C@@H]1CC[C@]2(C1)[C@H]1CC[C@H](C1)[C@H]2N.Cl` [Compound 211-P1-A], the EC50 is 1.22 µM in the series with MUC1-fs (read-out: EC50(Spot)) and > 5.6 µM in the series with MUC1-wt (read-out: WT EC50 (Cytoplasm)). Moreover, the “ECMax (%)” value in the series on MUC1-fs is −87.44%. For the same compound, the “WT ECMax (%)” value in the series on MUC1-wt worked out at 9.39%.

Take `CC[C@]1(C)[C@H]2CC[C@H](C2)[C@H]1N` (single isomer, unassigned) [Compound 202-P1]: the results for the EC50 with MUC1-fs (read-out: EC50(Spot)), in the series on P cells and in the series on MUC1-wt (read-out: WT EC50 (Cytoplasm)) were 0.04 µM, 0.026 µM and 4.04 µM, respectively. Further, in the series with MUC1-fs, the “ECMax (%)” value is −77.14%. Also, the “WT ECMax (%)” value in the series with MUC1-wt was ~150%. Also, the Stability/expiration date result in series [1] is “Stable when refrigerated and at room temperature for few hours”.

For `CC[C@@]1(C)[C@@H]2CC[C@@H](C2)[C@@H]1N` (single isomer, unassigned) [Compound 202-P2], the concentration giving a half-maximal response (EC50) in the series on MUC1-fs (read-out: EC50(Spot)) is 0.02 µM; in the series on P cells it was 0.014 µM; with MUC1-wt (read-out: WT EC50 (Cytoplasm)), > 1.8 µM. Moreover, the “ECMax (%)” value with MUC1-fs is on record as −76%. Also, the “WT ECMax (%)” value in the series with MUC1-wt is recorded as ~175%. Also, in series [1], the Stability/expiration date result was “Stable when refrigerated and at room temperature for few hours”.

`CC(C)[C@@H]1[C@@H]2CC[C@@H](C2)[C@]1(C)N` (single isomer, unassigned) [Compound 258]: in the series with FS MUC1, the half-inhibitory concentration (IC50) is 5.87 µM and the “FS MUC1 Spot Cytoplasm Avg Emax” value is given as −67.73. Further, in the series with NUCB1, the concentration for a half-maximal effect (EC50) was 9.77 µM and the “NUCB1 Intensity Avg Emax” value is reported as −89.37.

For the compound `CC(C)C1(C)C2CCC(C2)C1N.Cl` (racemic) [Compound 245, rac-3-isopropyl-3-methylbicyclo[2.2.1]heptan-2-amine hydrochloride], the EC50 stood at 0.011 µM with MUC1-fs (read-out: EC50) and 4.5 µM in the series with MUC1-wt (read-out: WT EC50). In the series with MUC1-fs, the Emax is listed as −90.2. Besides, the “WT EMax” value in the series with MUC1-wt amounted to 106.2.
